Source: paper PMC2912430 (Biochemistry, 2010)
Values joined by “and” are separate entries in the source; they are usually repeats but may differ in a detail not shown here. Identical values can stand only once.

Tests used:
[1] = test system: IDI-1; details: positively charged ammonium group at physiological pH; cited from earlier work
[2] = molecular target: T1, Escherichia coli IDI-1 (Escherichia coli, UniProt Q46822); details: cited from earlier work
[3] = molecular target: T2, Thermus thermophilus IDI-2 (Thermus thermophilus, UniProt Q53W52); details: cited from earlier work
[4] = molecular target: T1, Escherichia coli IDI-1; test: Acid lability assay, inhibition of the isomerization of IPP to DMAPP by IDI-1; type: biochemical; details: for Type of inhibition: isomerization of IPP to DMAPP catalyzed by IDI-1
[5] = molecular target: T2, Thermus thermophilus IDI-2; test: Acid lability assay, inhibition of the isomerization of IPP to DMAPP by IDI-2; type: biochemical; details: for Type of inhibition: isomerization of IPP to DMAPP catalyzed by IDI-2
[6] = molecular target: T2, Thermus thermophilus IDI-2; test: Product studies by 1H NMR, incubation with IDI-2; type: biochemical; details: for Isomerization (turnover as substrate) by NMR: IDI-2, 37 °C, spectra at one-hour intervals over 12 h; for Reactivity relative to the natural substrates (times less reactive): IDI-2, estimate based on NMR studies

T1 sequence (Q46822 whole entry): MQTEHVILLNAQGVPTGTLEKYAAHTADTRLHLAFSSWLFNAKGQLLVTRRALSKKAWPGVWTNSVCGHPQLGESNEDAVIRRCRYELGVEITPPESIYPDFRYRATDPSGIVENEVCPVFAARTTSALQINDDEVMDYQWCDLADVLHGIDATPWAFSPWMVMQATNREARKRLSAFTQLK

CN(C)CCOP(=O)(O)OP(=O)(O)O [N,N-Dimethyl-2-amino-1-ethyl diphosphate]
Affinity for IDI-1 [1]: sub-nanomolar affinity

C=C(C)CCOP(=O)(O)OP(=O)(O)O [IPP, isopentenyl diphosphate]
Km [2]: 7.9 µM
Km [3]: 5.6 µM

C=C=CCOP(=O)(O)OP(=O)(O)O [2-OPP, 2,3-Butadien-1-yl diphosphate]
IC50 [4]: ~200 µM
Ki ([4]; KI, IDI-1, acid lability assay, competitive inhibition): 49 µM and 31 µM
Type of inhibition [4]: competitive inhibitors
IC50 [5]: ~50 µM
Type of inhibition [5]: competitive inhibitors
Isomerization (turnover as substrate) by NMR [6]: no evidence was seen for isomerization
Reactivity relative to the natural substrates (times less reactive) [6]: at least 1000 times

CC(C)=CCOP(=O)(O)OP(=O)(O)O [DMAPP, dimethylallyl diphosphate]
Km [2]: 14 µM

C#CCCOP(=O)(O)OP(=O)(O)O [1-OPP, 3-Butyn-1-yl diphosphate]
IC50 [4]: ~200 µM
Type of inhibition [4]: competitive inhibitors
IC50 [5]: ~50 µM
Type of inhibition [5]: competitive inhibitors
Isomerization (turnover as substrate) by NMR [6]: no evidence was seen for isomerization
Reactivity relative to the natural substrates (times less reactive) [6]: at least 1000 times
